From ChEMBL document CHEMBL1137416, “Hydrophobic effect and hydrogen bonds account for the improved activity of a complement inhibitor, compstatin” (J Med Chem, 2006)

Molecular target: Complement C3 (Homo sapiens, UniProt P01024)
Assay: Inhibition of complement C3

Sequence of Complement C3 (P01024 23-667 limits assumed): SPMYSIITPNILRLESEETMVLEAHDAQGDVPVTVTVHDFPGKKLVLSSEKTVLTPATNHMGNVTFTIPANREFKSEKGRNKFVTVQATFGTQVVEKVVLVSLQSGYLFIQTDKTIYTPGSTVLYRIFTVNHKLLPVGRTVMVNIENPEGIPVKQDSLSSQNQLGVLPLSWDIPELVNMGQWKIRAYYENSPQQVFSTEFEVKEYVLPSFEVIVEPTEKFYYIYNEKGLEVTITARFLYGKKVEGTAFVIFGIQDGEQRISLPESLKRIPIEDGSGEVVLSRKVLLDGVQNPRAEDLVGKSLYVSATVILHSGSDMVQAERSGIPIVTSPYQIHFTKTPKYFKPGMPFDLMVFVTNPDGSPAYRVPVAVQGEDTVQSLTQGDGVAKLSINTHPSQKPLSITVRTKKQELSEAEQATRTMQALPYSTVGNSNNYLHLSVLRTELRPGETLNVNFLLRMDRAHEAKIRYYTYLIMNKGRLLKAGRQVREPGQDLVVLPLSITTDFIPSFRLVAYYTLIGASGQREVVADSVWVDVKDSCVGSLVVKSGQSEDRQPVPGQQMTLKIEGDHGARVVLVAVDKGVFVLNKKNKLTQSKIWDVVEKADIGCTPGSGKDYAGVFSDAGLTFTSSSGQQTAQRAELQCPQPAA
Sequence of Complement C3 (P01024 672-1663 limits assumed): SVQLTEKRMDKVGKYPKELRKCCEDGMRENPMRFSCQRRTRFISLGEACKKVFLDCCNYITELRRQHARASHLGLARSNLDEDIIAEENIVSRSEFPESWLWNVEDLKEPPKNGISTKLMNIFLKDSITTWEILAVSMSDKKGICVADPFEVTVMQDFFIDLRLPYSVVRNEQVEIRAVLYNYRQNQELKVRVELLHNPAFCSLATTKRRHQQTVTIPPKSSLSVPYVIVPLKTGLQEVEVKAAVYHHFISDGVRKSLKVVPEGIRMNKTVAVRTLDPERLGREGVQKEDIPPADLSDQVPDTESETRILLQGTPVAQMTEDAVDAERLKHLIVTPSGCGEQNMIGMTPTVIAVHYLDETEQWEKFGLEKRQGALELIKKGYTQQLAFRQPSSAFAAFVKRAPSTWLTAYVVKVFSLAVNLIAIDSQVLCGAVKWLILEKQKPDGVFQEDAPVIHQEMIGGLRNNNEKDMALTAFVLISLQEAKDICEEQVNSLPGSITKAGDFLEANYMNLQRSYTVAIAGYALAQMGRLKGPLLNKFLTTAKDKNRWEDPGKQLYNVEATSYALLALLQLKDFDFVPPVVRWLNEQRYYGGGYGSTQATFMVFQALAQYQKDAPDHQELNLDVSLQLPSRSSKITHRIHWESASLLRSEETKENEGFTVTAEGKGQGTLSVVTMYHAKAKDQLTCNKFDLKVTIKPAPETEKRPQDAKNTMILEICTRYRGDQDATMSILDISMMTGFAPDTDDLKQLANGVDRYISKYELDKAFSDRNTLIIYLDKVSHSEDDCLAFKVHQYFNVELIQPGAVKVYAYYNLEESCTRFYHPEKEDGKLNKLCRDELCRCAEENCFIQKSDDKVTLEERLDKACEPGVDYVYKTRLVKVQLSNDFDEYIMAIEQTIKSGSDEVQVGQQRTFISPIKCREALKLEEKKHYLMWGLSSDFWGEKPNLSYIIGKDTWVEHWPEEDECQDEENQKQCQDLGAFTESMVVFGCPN

`CC[C@H](C)[C@H](NC(C)=O)C(=O)N[C@H]1CSSC[C@@H](C(=O)N[C@H](C(N)=O)[C@@H](C)O)NC(=O)[C@H](CCCNC(=N)N)NC(=O)[C@H](Cc2c[nH]cn2)NC(=O)[C@H](C)NC(=O)CNC(=O)[C@H](Cc2c[nH]c3ccccc23)NC(=O)[C@H](CC(=O)O)NC(=O)[C@H](CCC(N)=O)NC(=O)[C@H](Cc2ccc3ccccc3c2)NC(=O)[C@H](C(C)C)NC1=O` gave an IC50 of 545 nM.
